Among the data in patent US9862730B2, “Imidazothiadiazole derivatives as protease activated receptor 4 (PAR4) inhibitors for treating platelet aggregation” (BRISTOL-MYERS SQUIBB COMPANY, priority 2012, dated 2018) are IC50 values, retold here.

Sequence of PAR4 (Q96RI0 18-385): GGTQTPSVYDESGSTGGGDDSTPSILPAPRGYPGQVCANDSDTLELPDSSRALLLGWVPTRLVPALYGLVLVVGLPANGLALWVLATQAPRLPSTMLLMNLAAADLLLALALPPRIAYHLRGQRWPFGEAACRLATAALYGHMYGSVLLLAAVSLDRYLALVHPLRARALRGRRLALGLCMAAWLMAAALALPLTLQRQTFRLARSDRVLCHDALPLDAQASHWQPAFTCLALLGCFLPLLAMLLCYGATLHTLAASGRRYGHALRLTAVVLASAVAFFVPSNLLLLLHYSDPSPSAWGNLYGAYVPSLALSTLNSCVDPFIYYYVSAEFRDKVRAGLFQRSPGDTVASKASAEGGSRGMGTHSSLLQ

The test has as its target PAR4 (Homo sapiens (Human), UniProt Q96RI0). Briefly: FLIPR assay in PAR4-expressing HEK293 cells (PAR4 antagonist activity, calcium mobilization). Type of test: cell-based. The conditions noted are these: FLIPR assay as described in Example A. The text has this:
The FLIPR assay is an exemplary in vitro assay for measuring the activity of the PAR4 antagonists of the present invention. In this assay, intracellular calcium mobilization is induced in PAR4 expressing cells by a PAR4 agonist and calcium mobilization is monitored. See, e.g., Example A.
HEK293 cells stably expressing PAR4 were generated by a standard method of transfection of human […] cDNA expression vector or by RAGE technology from Athersys Inc. (Cleveland, Ohio) and selected based on PAR4 protein expression of mRNA expression. […] These cells express endogenous PAR1 and can elicit calcium signal upon stimulation with PAR1 agonist peptide.
Counter screens for agonist activity and PAR1 antagonist activity were also performed. Briefly, HEK293 EBNA PAR4 clone 20664.1J cells were plated 24 hrs. prior to experiment in 384 well, Poly-D-Lysine coated, black, clear bottom plates (Greiner Bio-One, Monroe, N.C.). Cells were plated at 20,000 cells/well in 20 μl growth medium and incubated at 37° C. with 5% CO2 overnight. At time of assay, media was replaced with 40 μl 1× Hank's Buffered Saline Solution (HBSS) (with 10 mM HEPES) and 20 μl test compound also diluted in 1×HBSS buffer was added at various concentrations and 0.67% DMSO final concentration on the FDSS for agonist measurement. The cells were then incubated for 30 minutes at room temperature followed by addition of 20 μl of agonist peptide for antagonist measurement on the FDSS.
As indicated above, the FLIPR assay, an in vitro assay, measures the PAR4 antagonist activity of compounds tested as described in Example A.
What is called IC50 is the concentration at which inhibition is half-maximal. For `CCCCOc1cccc2cc(-c3cn4nc(CC)sc4n3)oc12` [Example 64], the IC50 turned out to be 1590 nM.
Regarding `C#Cc1cc(OCc2cccc(OCc3ccccc3)c2)c2cc(-c3cn4nc(OC)sc4n3)oc2c1` [Example 418], the concentration for half-maximal inhibition (IC50) was 9.37 nM.
The same measure for `CSc1nn2cc(-c3nc4c(OC[C@H]5CCCN5C(=O)[C@H](NC(=O)c5cccs5)c5ccccc5)cccc4o3)nc2s1` [Example 336, N—((R)-2-((R)-2-(((2-(2-(Methylthio)imidazo[2,1-b][1,3,4]thiadiazol-6-yl)benzo[d]oxazol-4-yl)oxy)methyl)pyrrolidin-1-yl)-2-oxo-1-phenylethyl)thiophene-2-carboxamide]: 897 nM.
Turning to `CSc1nn2cc(-c3cc4cccc(OC(F)(F)F)c4o3)nc2s1` [Example 70], the IC50 amounted to 400 nM.
`CCc1nn2cc(-c3nc4cc(Cl)ccc4o3)nc2s1` [Example 45]: the concentration for half-maximal inhibition (IC50) was found to be 135 nM.
For the compound `COc1nn2cc(-c3cc4c(OCc5ccccc5)cccc4o3)nc2s1` [Example 210, 6-(4-(Benzyloxy)benzofuran-2-yl)-2-methoxyimidazo[2,1-b][1,3,4]thiadiazole], the IC50 stood at 24.5 nM.
As for `COCCOc1cccc2oc(-c3cn4nc(OC)sc4n3)cc12` [Example 256], the figure is 48.4 nM; as for `COc1nn2cc(-c3cc4ccc(Cl)cc4o3)nc2s1` [Example 94], 3.58 nM; as for `COc1nn2cc(-c3cc4c(OCc5cccc(OCc6ccccc6)c5)cc(O)cc4o3)nc2s1` [Example 410, 4-((3-(Benzyloxy)benzyl)oxy)-2-(2-methoxyimidazo[2,1-b][1,3,4]thiadiazol-6-yl)benzofuran-6-ol], 7.79 nM.
The same measure for `CC(F)(F)c1nn2cc(-c3nc4c(N)cccc4o3)nc2s1` [Example 124, 2-(2-(1,1-Difluoroethyl)imidazo[2,1-b][1,3,4]thiadiazol-6-yl)-4-aminobenzo[d]oxazole]: 3480 nM; for `CSc1nn2cc(-c3cc4ccc(C)c(C)c4o3)nc2s1` [Example 107]: 339 nM; for `COc1nn2cc(-c3cc4c(Cl)nccc4o3)nc2s1` [Example 223, 4-Chloro-2-(2-methoxyimidazo[2,1-b][1,3,4]thiadiazol-6-yl)furo[3,2-c]pyridine]: 21.6 nM.
Consider `COc1cc(OC[C@H]2CCCN2C(=O)c2ccc(F)cc2)c2cc(-c3cn4nc(OC)sc4n3)oc2c1` [Example 341], for which the IC50 came to 22 nM.
Turning to `COc1nn2cc(-c3cc4cccc(C)c4o3)nc2s1` [Example 89], the IC50 is 28.2 nM.
For `COc1nn2cc(-c3cc4c(OCc5ccc(F)cc5)cccc4o3)nc2s1` [Example 266], the IC50 turned out to be 43.1 nM.
With `COc1ccc2cc(-c3cn4nc(SC)sc4n3)oc2c1` [Example 20], the IC50 came out at 3.53 nM.
Regarding `COc1cc(OC(C)C)c2cc(-c3cn4nc(SC)sc4n3)oc2c1` [Example 298], the IC50 was 18.6 nM.
As for `CC(F)c1nn2cc(-c3cc4ccc(F)cc4o3)nc2s1` (stereo not shown) [Example 245], the figure is 72.3 nM; as for `COc1nn2cc(-c3cc4c(OCc5cccc(OCc6ccccc6)c5)cc(C#N)cc4o3)nc2s1` [Example 417], 5.02 nM; as for `COc1nn2cc(-c3cc4ccc(O)cc4o3)nc2s1` [Example 108], 461 nM.
`CSc1nn2cc(-c3nc4c(OCc5cccnc5)cccc4o3)nc2s1` [Example 154]: the IC50 came to 571 nM.
As to `CC(F)(F)c1nn2cc(-c3cc4ccccc4o3)nc2s1` [Example 207, 6-(Benzofuran-2-yl)-2-(1,1-difluoroethyl)imidazo[2,1-b][1,3,4]thiadiazole], the half-maximal inhibitory concentration (IC50) turned out to be 127 nM.
For `CC(F)c1nn2cc(-c3cc4c(OCc5ccccc5)cccc4o3)nc2s1` (stereo not shown) [Example 251], the half-inhibitory concentration (IC50) is 230 nM.
In the case of `COc1ccc2oc(-c3cn4nc(SC)sc4n3)c(C)c2c1` [Example 24], the 50% inhibitory concentration (IC50) is 696 nM.
`Cc1ccc2nc(-c3cn4nc(C(C)(F)F)sc4n3)sc2c1` [Example 199]: the IC50 was 2680 nM.
Regarding `FC(F)C(F)(F)c1nn2cc(-c3cc4ccccc4o3)nc2s1` [Example 208, 6-(Benzofuran-2-yl)-2-(1,1,2,2-tetrafluoroethyl)imidazo[2,1-b][1,3,4]thiadiazole], the IC50 came out at 457 nM.
With `CSc1nn2cc(-c3cc4c(F)cccc4o3)nc2s1` [Example 262], the IC50 was determined as 4.28 nM.
In the case of `COc1cc(OCc2cccc(OCc3cc(OC)c(OC)c(OC)c3)c2)c2cc(-c3cn4nc(OC)sc4n3)oc2c1` [Example 380], the concentration for half-maximal inhibition (IC50) worked out at 1.11 nM.
For `CCc1nn2cc(-c3nc4ccc(OC(C)C)cc4o3)nc2s1` [Example 87], the IC50 is 450 nM.
Regarding `CSc1nn2cc(-c3nc4c(C)cccc4o3)nc2s1` [Example 128], the IC50 worked out at 17.1 nM.
As for `CC(F)(F)c1nn2cc(-c3cc4ccc(F)cc4o3)nc2s1` [Example 231], the figure is 22.3 nM; as for `COc1nn2cc(-c3cc4ccc(C)c(C)c4o3)nc2s1` [Example 102], 542 nM; as for `COc1nn2cc(-c3nc4cc(F)c(F)cc4o3)nc2s1` [Example 138], 470 nM.
As to `CSc1nn2cc(-c3nc4ccc(OCc5ccc(C(F)(F)F)cc5)cc4o3)nc2s1` [Example 153], the IC50 came out at 345 nM.
With `CSc1nn2cc(-c3nc4c(OC(F)(F)F)cccc4s3)nc2s1` [Example 181, 2-(2-(Methylthio)imidazo[2,1-b][1,3,4]thiadiazol-6-yl)-4-(trifluoromethoxy)benzo[d]thiazole], the IC50 worked out at 419 nM.
`CSc1nn2cc(-c3cc4c(OCc5cccc(OCc6ccccc6)c5)cc(OS(=O)(=O)C(F)(F)F)cc4o3)nc2s1` [Example 420]: the concentration for half-maximal inhibition (IC50) came to 51.1 nM.
As for `CSc1nn2cc(-c3nc4cc(F)c(F)cc4o3)nc2s1` [Example 137], the concentration for half-maximal inhibition (IC50) was 23.9 nM.
With `CSc1nn2cc(-c3nc4cc(C)ccc4o3)nc2s1` [Example 113], the 50% inhibitory concentration (IC50) was 15.2 nM.
Take `COc1ccc2cc(-c3cn4nc(C(C)F)sc4n3)oc2c1` (stereo not shown) [Example 293]: the half-inhibitory concentration (IC50) was 4.83 nM.
With `COc1nn2cc(-c3nc4cc(C)c(C)cc4o3)nc2s1` [Example 136], the IC50 was 38.9 nM.
For the compound `CCc1nn2cc(-c3nc4c(C)cccc4o3)nc2s1` [Example 42], the IC50 was determined as 462 nM.
In the case of `CCc1nn2cc(-c3nc4ccc(OCCCc5ccccc5)cc4o3)nc2s1` [Example 78], the IC50 was determined as 576 nM.
In the case of `CSc1nn2cc(-c3nc4c(OCc5ccc(C(F)(F)F)cc5)cccc4o3)nc2s1` [Example 155], the half-maximal inhibitory concentration (IC50) was determined as 301 nM.
As for `CSc1nn2cc(-c3nc4ccc(OCc5ccc(Cl)cc5)cc4o3)nc2s1` [Example 169], the IC50 was determined as 70.5 nM.
The same measure for `COc1cc(OCc2cccc(OCc3cccc4ccccc34)c2)c2cc(-c3cn4nc(OC)sc4n3)oc2c1` [Example 310]: 3.45 nM; for `CCOC(=O)CCCOc1cccc2cc(-c3cn4nc(CC)sc4n3)oc12` [Example 60]: 623 nM; for `COc1cc(OCc2cccc(OCc3ccc(Cl)cc3F)c2)c2cc(-c3cn4nc(OC)sc4n3)oc2c1` [Example 323]: 1.48 nM.
As for `CC(F)(F)c1nn2cc(-c3nc4ccccc4s3)nc2s1` [Example 185, 2-(2-(1,1-Difluoroethyl)imidazo[2,1-b][1,3,4]thiadiazol-6-yl)benzo[d]thiazole], the IC50 is 626 nM.
For `COc1cc2oc(-c3cn4nc(C(C)(F)F)sc4n3)cc2cc1Cl` [Example 239], the IC50 was 7.24 nM.
